Experimental data reported in ChEMBL document CHEMBL1147462, “Exploring QSAR of melatonin receptor ligand benzofuran derivatives using E-state index” (Bioorg Med Chem Lett, 2004).

How the values were obtained:
[1] = biological target: T1, Melatonin receptor (Homo sapiens) (UniProt P48039+P49286); assay: Selectivity (pC2-PC1) was determined; type: protein assay
[2] = biological target: Melatonin receptor type 1A (Homo sapiens) (UniProt P48039); assay: Binding affinity against Melatonin receptor type 1A
[3] = biological target: T2, Melatonin receptor type 1B (Homo sapiens) (UniProt P49286); assay: Binding affinity against melatonin receptor type 1B
T2 sequence (whole entry): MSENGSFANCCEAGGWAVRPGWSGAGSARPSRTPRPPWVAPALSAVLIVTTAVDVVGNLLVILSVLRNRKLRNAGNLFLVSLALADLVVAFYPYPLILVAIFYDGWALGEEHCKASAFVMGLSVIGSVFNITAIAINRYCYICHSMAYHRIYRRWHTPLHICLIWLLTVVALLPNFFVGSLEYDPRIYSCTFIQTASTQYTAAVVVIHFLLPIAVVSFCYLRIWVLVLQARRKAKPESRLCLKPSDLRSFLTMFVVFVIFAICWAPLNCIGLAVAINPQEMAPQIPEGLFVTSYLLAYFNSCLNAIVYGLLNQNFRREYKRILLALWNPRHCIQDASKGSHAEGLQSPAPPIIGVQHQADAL

[4] = biological target: T1, Melatonin receptor (Homo sapiens); assay: Binding affinity against melatonin (MT1) receptor (pC1); type: protein assay

Sequence of Melatonin receptor type 1A (Homo sapiens) (P48039 whole entry): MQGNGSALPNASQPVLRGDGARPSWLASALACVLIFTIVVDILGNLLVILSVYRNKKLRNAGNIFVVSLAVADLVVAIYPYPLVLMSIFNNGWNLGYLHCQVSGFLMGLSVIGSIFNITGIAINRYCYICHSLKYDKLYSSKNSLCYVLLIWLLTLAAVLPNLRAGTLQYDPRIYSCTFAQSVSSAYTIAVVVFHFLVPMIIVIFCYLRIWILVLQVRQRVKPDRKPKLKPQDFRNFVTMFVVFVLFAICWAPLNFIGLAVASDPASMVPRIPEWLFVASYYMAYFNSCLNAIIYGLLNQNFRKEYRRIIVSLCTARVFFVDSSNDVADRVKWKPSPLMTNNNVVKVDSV
T1 sequence (P48039 whole entry, looked up, one chain of several): as the sequence (P48039 whole entry) above

| Selectivity [1] | pC1 [2] | pC1 [3] | pC1 [4] | SMILES |
| --- | --- | --- | --- | --- |
| 0.513 | 3.12 | 3.64 |  | COc1ccc2oc(Cc3cccc(F)c3)c(CCNC(C)=O)c2c1 |
| 2.1 |  | 3.5 |  | COc1cccc(Cc2oc3ccc(OC)cc3c2CCNC(C)=O)c1 |
| 1.83 | 1.1 | 2.93 |  | COc1ccc2oc(Cc3cccc(C(F)(F)F)c3)c(CCNC(C)=O)c2c1 |
| 1.51 | 2.14 | 3.66 |  | COc1ccc2oc(Cc3cccc(Cl)c3)c(CCNC(C)=O)c2c1 |
| 1.68 | 1.62 | 3.3 |  | COc1ccc(Cc2oc3ccc(OC)cc3c2CCNC(C)=O)cc1 |
| 1.19 | 2.27 | 3.46 |  | CNC(=O)NCCc1c(Cc2ccccc2)oc2ccc(OC)cc12 |
| 1.09 | 0.64 | 1.73 |  | COc1cccc(Cc2oc3ccccc3c2CCNC(C)=O)c1 |
| 0.147 | 0.322 | 0.469 |  | COc1ccc2oc(Cc3cc(C(F)(F)F)cc(C(F)(F)F)c3)c(CCNC(C)=O)c2c1 |
| 1.23 | 0.541 | 1.77 |  | CCc1ccc2oc(Cc3cccc(OC)c3)c(CCNC(C)=O)c2c1 |
| 2.1 | 1.84 | 3.47 |  | COc1ccc2oc(Cc3ccccc3OC)c(CCNC(C)=O)c2c1 |
| 0.82 | 1.07 | 1.89 |  | COc1ccc2oc(Cc3c(Cl)cccc3Cl)c(CCNC(C)=O)c2c1 |
| 1.32 | 1.5 | 2.82 |  | COc1ccc2oc(CCCc3ccccc3)c(CCNC(C)=O)c2c1 |
| 1.3 | 1.26 | 2.56 |  | C=CC(=O)NCCc1c(Cc2cccc(OC)c2)oc2ccc(OC)cc12 |

Continued, compound first:

| SMILES | Selectivity [1] | pC1 [2] | pC1 [3] | pC1 [4] |
| --- | --- | --- | --- | --- |
| CCCCCOc1ccc2oc(Cc3ccccc3)c(CCNC(C)=O)c2c1 | 0.642 | 1.37 | 2.01 |  |
| CNC(=O)NCCc1c(-c2ccccc2)oc2ccc(OC)cc12 | 0 |  | 4.4 | 4.4 |
| COc1ccc2oc(-c3ccccc3)c(CCNC(C)=O)c2c1 | -0.301 | 5 | 4.7 |  |
| C=CCC(=O)NCCc1c(Cc2ccccc2)oc2ccc(OC)cc12 | 1.77 | 2.46 | 4.22 |  |
| CC(=O)NCCc1c(Cc2ccccc2)oc2ccccc12 | 1.17 | 0.81 | 1.98 |  |
| C=CC(=O)NCCc1c(-c2ccccc2)oc2ccc(OC)cc12 | 0.301 | 4.7 | 5 |  |
| CC(=O)NCCc1c(Cc2ccccc2)oc2ccc(O)cc12 | 0.852 | 0.245 | 1.1 |  |
| C/C=C/C(=O)NCCc1c(-c2ccccc2)oc2ccc(OC)cc12 | 0.682 | 3 | 3.68 |  |
| COc1ccc2oc(-c3ccccc3)c(CCNC(=O)Cc3ccco3)c2c1 | -1.45 | 1.89 | 0.442 |  |
| CCCC(=O)NCCc1c(Cc2ccccc2)oc2ccc(OC)cc12 | 1.22 | 2.48 | 3.7 |  |
| C=CCC(=O)NCCc1c(-c2ccccc2)oc2ccc(OC)cc12 | -0.301 | 5 | 4.7 |  |
| CCc1ccc2oc(Cc3ccccc3)c(CCNC(C)=O)c2c1 | 0.893 | 1.19 | 2.08 |  |
| C=CC(=O)NCCc1c(Cc2ccccc2)oc2ccc(OC)cc12 | 1.89 | 1.27 | 3.16 |  |
| CCCCCCOc1ccc2oc(Cc3ccccc3)c(CCNC(C)=O)c2c1 | 0.407 | 2.09 | 2.49 |  |
| COc1ccc2oc(CC3CCCCC3)c(CCNC(C)=O)c2c1 | 1.43 | 1.18 | 2.6 |  |
| COc1ccc2oc(Cc3ccccc3)c(CCNC(=O)c3ccco3)c2c1 | 1.28 | 0.156 | 1.44 |  |
| COc1ccc2oc(Cc3ccccc3)c(CCNC(=O)CI)c2c1 | 1.32 | 2.06 | 3.39 |  |
